Results published in article PMC11923874, “Integration of Phytomelatonin Signaling With Jasmonic Acid in Wound‐induced Adventitious Root Regeneration” (Advanced Science, 2025).

Assays:
[1] = molecular target: T1, SlPMTR2 (Solanum lycopersicum, UniProt A0A3Q7GXJ6); assay: microscale thermophoresis (GFP fusion); format: binding
T1 construct: gene LOC101260652; 6xHis-MBP-SlPMTR2-GFP fusion, pMAL-c2, E. coli Rosetta (DE3), Ni-NTA purified; seven-transmembrane protein; native length 309 residues (fragments 1-140 and 141-309); tags kept
T1 sequence (A0A3Q7GXJ6 1-309): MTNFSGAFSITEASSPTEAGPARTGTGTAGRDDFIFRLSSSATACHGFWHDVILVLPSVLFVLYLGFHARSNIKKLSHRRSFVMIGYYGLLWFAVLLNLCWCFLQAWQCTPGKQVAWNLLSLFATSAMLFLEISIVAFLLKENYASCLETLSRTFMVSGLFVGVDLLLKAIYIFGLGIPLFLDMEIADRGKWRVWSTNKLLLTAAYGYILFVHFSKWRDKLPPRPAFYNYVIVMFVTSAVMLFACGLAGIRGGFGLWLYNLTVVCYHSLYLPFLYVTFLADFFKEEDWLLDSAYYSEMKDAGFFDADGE

[2] = molecular target: T2, SlPMTR1; assay: microscale thermophoresis (GFP fusion); format: binding, Solanum lycopersicum; conditions: 22 °C, 30 min incubation; His-MBP-GFP fusion protein at 1 mg/ml
T2 construct: 6xHis-MBP-SlPMTR1-GFP fusion, pMAL-c2, E. coli Rosetta (DE3), Ni-NTA purified; seven-transmembrane protein; native length 300 residues (fragments 1-134 and 135-300); tags kept

Kd [1]: 0.419 µM
Kd [2]: 0.0507 µM
SMILES: COc1ccc2[nH]cc(CCNC(C)=O)c2c1 [melatonin]
